# Source: paper PMC12016938, “A small molecule PKCε inhibitor reduces hyperalgesia induced by paclitaxel or opioid withdrawal” (JCI Insight, 2025)
# Several values for one entry are separate records, joined by “and”; a condition that tells them apart may be missing. Identical values can stand only once. Counter-ions that a name gives are not always drawn.
# System: self-administration (addictive potential)
# Experiment: I.v. self-administration of CP612, between-session progressive ratio and demand curve
# Description: We tested the addictive potential of CP612 by examining the extent to which rats are willing to work to obtain CP612. Rats were initially trained to self-administer either saline, morphine (500 μg/kg/i.v. infusion), or 1 of 3 different doses of CP612 (75, 150, or 300 μg/kg/i.v. infusion) for 4 days at fixed ratio 1 (FR1, where 1 nose poke delivers 1 infusion).
# During the second phase, the ratio to obtain an infusion increased geometrically every other day (FR1, FR3, FR6, FR12, FR24, FR48, and FR96).
# Data (number of self-infusions) were also fitted in an economic-demand curve, which provides an estimate of the motivation to obtain drugs and their addictive potential ([20]). We measured elasticity (α), which is the relative change in consumption as a function of price (i.e., ratio of nose pokes required to obtain an infusion). Behavior is considered “inelastic” when consumption is insensitive to price and “elastic” when consumption is sensitive to price. We also measured Pmax, which is the price at which intake switches from inelastic to elastic. […] (Figure 8B).
# Rats not immediately anesthetized were eliminated from the study.
# Following this initial acquisition phase at FR1, the ratio to obtain the drug was increased geometrically every other day: FR3 (3 nose pokes are required to obtain 1 infusion of morphine), FR6, FR12, FR24, FR48, and FR96. This allows for analysis of drug consumption as a function of “price” using demand curves for behavioral economics, which can estimate the motivation to obtain drugs and their “addictive potential” ([20]). For this, data from each rat were fitted to the equation log Q = log Q0 + k (e ^–α(Q0 ^C) – 1), where Q represents consumption (number of self-infusions), and Q0 represents the level of consumption at the lowest price. C represents price for the drug (i.e., the ratio), and k is set to a constant accounting for the estimated range of consumption in logarithmic units (k = 4 in these studies). The symbol α is the relative change in consumption across changes in price (ratio). Behavior is considered “inelastic” when consumption is insensitive to price (i.e., the curve is flat, and consumption is maintained despite increases in price), and it switches to “elastic” when consumption is sensitive to price (i.e., when the curve is steep and consumption declines with increases in price). […] We also compared groups for their average intake in the consumption-price curves by measuring α (elasticity) and Pmax.
# [1] = individual rat values, drug self-administered
compound,measurement,setting,value
"CN1CC[C@]23c4c5ccc(O)c4O[C@H]2[C@@H](O)C=C[C@H]3[C@H]1C5 [Morphine, Morphine sulfate, reference compound]",Responding in the active hole when the ratio to obtain an infusion increased,"FR1 to FR96, CP612 75, 150, 300 or morphine 500 μg/kg/i.v. infusion",increased responding
same,Number of self-infusions when the ratio to obtain an infusion increased,"FR1 to FR96, compared with saline",did not significantly decrease
same,D1 AH (FR1),[1],7 and 9 and 15
same,D1 AH (FR3),[1],23 and 18 and 20
same,D1 AH (FR6),[1],51 and 24 and 47
same,D1 AH (FR12),[1],97 and 70 and 72
same,D1 AH (FR24),[1],143 and 139 and 168
same,D1 AH (FR48),[1],113 and 164 and 127
same,D1 AH (FR96),[1],127 and 137 and 133
same,D1 IH (FR1),[1],1 and 12 and 2
same,D1 IH (FR3),[1],9 and 12 and 5
same,D1 IH (FR6),[1],0 and 9 and 7
same,D1 IH (FR12),[1],2 and 15 and 20
same,D1 IH (FR24),[1],7 and 9 and 20
same,D1 IH (FR48),[1],13 and 28
same,D1 IH (FR96),[1],7 and 33
same,D1 Inf (FR1),[1],6 and 7 and 10
same,D1 Inf (FR3),[1],7 and 5 and 6
same,D1 Inf (FR6),[1],8 and 4 and 7
same,D1 Inf (FR12),[1],8 and 5 and 6
same,D1 Inf (FR24),[1],5 and 6
same,D1 Inf (FR48),[1],2 and 3
same,D1 Inf (FR96),[1],1
same,D1 Latency (FR1),[1],1.5 and 1.4 and 2.3
same,D1 Latency (FR3),[1],0.38 and 0.7 and 0.267
same,D1 Latency (FR6),[1],0.2 and 0.317 and 0.6
same,D1 Latency (FR12),[1],1.6 and 0.6 and 1.7
same,D1 Latency (FR24),[1],1.3 and 0.5 and 0.26
same,D1 Latency (FR48),[1],0.367 and 0.26 and 1.1
same,D1 Latency (FR96),[1],1.0 and 1.1 and 0.7
same,D2 AH (FR1),[1],5 and 7 and 12
same,D2 AH (FR3),[1],25 and 23 and 26
same,D2 AH (FR6),[1],59 and 60 and 46
same,D2 AH (FR12),[1],118 and 94 and 104
same,D2 AH (FR24),[1],143 and 151 and 176
same,D2 AH (FR48),[1],163 and 134 and 158
same,D2 AH (FR96),[1],106 and 145 and 179
same,D2 IH (FR1),[1],8 and 6 and 2
same,D2 IH (FR3),[1],1 and 11 and 13
same,D2 IH (FR6),[1],9 and 8
same,D2 IH (FR12),[1],8 and 7
same,D2 IH (FR24),[1],11 and 7 and 20
same,D2 IH (FR48),[1],19 and 11
same,D2 IH (FR96),[1],6 and 16
same,D2 Inf (FR1),[1],5 and 6 and 9
same,D2 Inf (FR3),[1],8 and 6
same,D2 Inf (FR6),[1],8 and 9 and 7
same,D2 Inf (FR12),[1],9 and 6 and 7
same,D2 Inf (FR24),[1],5 and 6 and 7
same,D2 Inf (FR48),[1],3 and 2
same,D2 Inf (FR96),[1],1
same,D2 Latency (FR1),[1],0.458 and 1.3 and 0.3
same,D2 Latency (FR3),[1],0.25 and 0.473 and 0.4
same,D2 Latency (FR6),[1],3.2 and 1.4 and 0.647
same,D2 Latency (FR12),[1],0.127 and 0.277 and 0.753
same,D2 Latency (FR24),[1],3.0 and 1.6
same,D2 Latency (FR48),[1],0.218 and 0.3 and 0.9
same,D2 Latency (FR96),[1],0.5 and 0.28 and 1.1
same,D3 AH (FR1),[1],8 and 11 and 13
same,D3 IH (FR1),[1],3 and 5 and 0
same,D3 Inf (FR1),[1],6 and 7 and 9
same,D3 Latency (FR1),[1],0.6 and 2.1 and 0.053
same,D4 AH (FR1),[1],10 and 12 and 11
same,D4 IH (FR1),[1],0 and 4 and 2
same,D4 Inf (FR1),[1],7 and 9
same,D4 Latency (FR1),[1],0.13 and 0.6 and 0.632
same,last AH (FR1),[1],7 and 8 and 14
same,last IH (FR1),[1],3 and 2 and 4
same,last Inf (FR1),[1],6
same,last Latency (FR1),[1],0.34 and 0.452 and 0.9
same,last-1 AH (FR1),[1],10 and 12 and 11
same,last-1 IH (FR1),[1],0 and 4 and 2
same,last-1 Inf (FR1),[1],7 and 9
same,last-1 Latency (FR1),[1],0.13 and 0.6 and 0.632
same,last-2 AH (FR1),[1],8 and 11 and 13
same,last-2 IH (FR1),[1],3 and 5 and 0
same,last-2 Inf (FR1),[1],6 and 7 and 9
same,last-2 Latency (FR1),[1],0.6 and 2.1 and 0.053
same,last-3 AH (FR1),[1],5 and 7 and 12
same,last-3 IH (FR1),[1],8 and 6 and 2
same,last-3 Inf (FR1),[1],5 and 6 and 9
same,last-3 Latency (FR1),[1],0.458 and 1.3 and 0.3
same,Pmax (price at which intake switches from inelastic to elastic),morphine 500 μg/kg/i.v. infusion,50.1
same,AVG AH (FR3),"morphine, individual rats",43.5 and 29.0 and 31.0 and 18.0 and 18.5 and 24.0
same,AVG AH (FR6),"morphine, individual rats",43.5 and 53.5 and 45.5 and 38.5 and 31.0 and 21.0
same,AVG AH (FR12),"morphine, individual rats",62.0 and 88.0 and 64.5 and 104.0 and 39.0 and 41.5
same,AVG AH (FR24),"morphine, individual rats",164.5 and 149.5 and 79.5 and 187.0 and 122.5 and 61.0
same,AVG AH (FR48),"morphine, individual rats",232.5 and 252.5 and 73.5 and 255.0 and 135.0 and 63.0
same,AVG AH (FR96),"morphine, individual rats",203.5 and 351.0 and 57.0 and 198.0 and 210.5 and 36.0
same,AVG IH (FR1_D1 to D4),"morphine, individual rats",10.3 and 8.8 and 13.3 and 5.3 and 14.8 and 7.0
same,AVG IH (FR1_Last 2 FR1 days),"morphine, individual rats",3.5 and 3.0 and 5.5 and 5.0 and 6.5 and 9.0
same,AVG IH (FR1_Last 4 FR1 days),"morphine, individual rats",10.8 and 3.5 and 9.5 and 4.8 and 11.0 and 7.5
same,AVG IH (FR3),"morphine, individual rats",10.0 and 7.5 and 8.5 and 8.0 and 15.0 and 9.0
same,AVG IH (FR6),"morphine, individual rats",6.5 and 7.0 and 9.0 and 7.5 and 13.5 and 11.0
same,AVG IH (FR12),"morphine, individual rats",11.0 and 9.5 and 19.0 and 5.0 and 6.0 and 4.0
same,AVG IH (FR24),"morphine, individual rats",11.0 and 10.0 and 15.0 and 7.5 and 8.5
same,AVG IH (FR48),"morphine, individual rats",8.5 and 13.5 and 12.0 and 18.0 and 9.5 and 13.0
same,AVG IH (FR96),"morphine, individual rats",8.5 and 18.5 and 13.5 and 14.5 and 26.0
same,AVG Inf (FR1_D1 to D4),"morphine, individual rats",10.8 and 9.3 and 8.0 and 12.0 and 9.5 and 10.0
same,AVG Inf (FR1_Last 2 FR1 days),"morphine, individual rats",14.0 and 10.0 and 11.0 and 9.0 and 7.5
same,AVG Inf (FR1_Last 4 FR1 days),"morphine, individual rats",12.0 and 10.0 and 9.0 and 13.3 and 9.5 and 9.3
same,AVG Inf (FR3),"morphine, individual rats",10.5 and 8.5 and 9.5 and 5.0 and 4.5
same,AVG Inf (FR6),"morphine, individual rats",7.0 and 7.5 and 6.0 and 4.0 and 3.0
same,AVG Inf (FR12),"morphine, individual rats",5.0 and 6.0 and 4.5 and 8.0 and 3.0
same,AVG Inf (FR24),"morphine, individual rats",6.0 and 5.5 and 3.0 and 7.5 and 4.0 and 2.0
same,AVG Inf (FR48),"morphine, individual rats",4.5 and 5.0 and 1.0 and 2.0
same,AVG Inf (FR96),"morphine, individual rats",1.5 and 3.0 and 0.0
same,AVG Latency (FR1_D1 to D4),"morphine, individual rats",2.4 and 4.0 and 9.8 and 1.3 and 2.0 and 1.1
same,AVG Latency (FR1_Last 2 FR1 days),"morphine, individual rats",0.271 and 0.4 and 3.0 and 0.18 and 0.74 and 1.1
same,AVG Latency (FR1_Last 4 FR1 days),"morphine, individual rats",0.3 and 0.277 and 3.8 and 0.6 and 1.1
